Laboratory results published in PMC11219871, “Epigenetic-based differentiation therapy for Acute Myeloid Leukemia” (Nature Communications, 2024).
Values joined by “and” are separate entries in the source; they are usually repeats but may differ in a detail not shown here. Equal entries are not always repeated.

Tests used:
[1] = molecular target: T1, HDAC7 (Homo sapiens, UniProt Q8WUI4); experiment: HDAC assay (Eurofins); format: biochemical
T1 construct: purchased Eurofins (contracted assay service)
T1 sequence (Q8WUI4 1-952): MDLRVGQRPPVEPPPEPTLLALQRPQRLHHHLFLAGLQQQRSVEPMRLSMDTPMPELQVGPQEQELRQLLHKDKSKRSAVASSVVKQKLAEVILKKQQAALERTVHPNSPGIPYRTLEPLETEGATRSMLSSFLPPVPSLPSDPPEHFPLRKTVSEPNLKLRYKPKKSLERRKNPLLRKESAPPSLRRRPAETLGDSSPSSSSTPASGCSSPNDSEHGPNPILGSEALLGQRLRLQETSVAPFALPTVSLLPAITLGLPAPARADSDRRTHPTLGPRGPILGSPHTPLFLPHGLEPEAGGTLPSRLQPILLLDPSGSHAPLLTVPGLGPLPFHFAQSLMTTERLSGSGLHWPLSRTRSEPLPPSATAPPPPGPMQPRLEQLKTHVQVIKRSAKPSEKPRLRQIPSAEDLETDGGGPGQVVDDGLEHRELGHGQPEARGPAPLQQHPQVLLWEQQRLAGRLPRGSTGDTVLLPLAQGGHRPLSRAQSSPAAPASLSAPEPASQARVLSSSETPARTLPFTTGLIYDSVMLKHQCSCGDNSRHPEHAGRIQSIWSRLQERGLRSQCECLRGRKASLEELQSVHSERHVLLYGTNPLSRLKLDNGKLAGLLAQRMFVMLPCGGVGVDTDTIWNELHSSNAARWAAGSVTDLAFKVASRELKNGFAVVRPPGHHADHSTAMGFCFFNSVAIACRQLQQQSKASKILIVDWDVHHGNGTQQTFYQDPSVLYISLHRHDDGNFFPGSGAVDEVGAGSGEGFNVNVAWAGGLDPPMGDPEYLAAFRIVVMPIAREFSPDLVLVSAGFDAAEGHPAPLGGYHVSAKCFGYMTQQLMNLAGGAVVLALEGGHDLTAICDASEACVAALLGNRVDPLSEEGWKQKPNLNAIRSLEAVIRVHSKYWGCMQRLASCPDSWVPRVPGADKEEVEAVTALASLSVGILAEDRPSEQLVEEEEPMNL

[2] = test system: ML-2; experiment: q-RT-PCR of MYC, CDKN2A, CDKN1A, GATA2, TAL1, CEBPA, SPI1; format: cell-based, human
Description: (§1) RNA was extracted with TRIzol Reagent (Invitrogen) according to the manufacturer’s instructions. First, cDNA was synthesized from 1 µg of total RNA using the PrimeScript RT reagent Kit (Perfect Real Time) (Cat No RR037A, TaKaRa) following the manufacturer’s instructions. The quality of cDNA was checked by a multiplex PCR that amplifies PBGD, ABL, BCR and β2-MG genes. […] The following program conditions were used for the q-PCR: 50 °C for 2 min, 95 °C for 60 s following by 45 cycles at 95 °C for 15 s and 60 °C for 60 s; melting program, one cycle at 95 °C for 15 s, 40 °C for 60 s, and 95 °C for 15 s. The relative expression of each gene was quantified by the […] method using the gene GUS as an endogenous control. The sequence of primers used can be found in Supplementary Table 10.

[3] = test system: MOLM-13; experiment: as above; format: cell-based, human
Description: as §1

[4] = CACO-2 permeability; format: in vitro ADME; conditions: human
Description: This study was conducted at Wuxi (http://www.wuxi.com/). Caco-2 cells (ATCC) were seeded onto polyethylene membranes in 96-well BD insert plates at 1 × 10^5 cells/cm^2, and the medium was changed every 4 days until the 21st to 28th day for confluent cell monolayer formation. Test compounds were diluted with transport buffer (HBSS with 10 mM HEPES at pH 7.4 ± 0.05) to a concentration of 2 µM (final DMSO concentration adjusted to <1%) and tested bi-directionally to investigate P-glycoprotein-mediated efflux in duplicate. Controls: digoxin (10 μM, bi-directionally), nanodolol and metoprolol (2 μM, apical, A, to basolateral, B). The permeation was assessed over a 120-minute incubation at 37 °C ± 1 °C and 5% CO2 at saturated humidity without shaking. Samples were mixed with acetonitrile containing internal standard and centrifuged at 1520 g for 10 min. Then, 100-μL aliquots of supernatant solutions were diluted with 100 μL of pure water. Concentrations of test and control compounds in starting solution, donor solution, and receiver solution were quantified by LC-MS/MS using a peak area ratio of analyte to internal standard. Permeation of lucifer yellow through the monolayer was measured to evaluate the cellular integrity. The results are the average of two biological replicates.

[5] = test system: HL-60 cells in BALB/cA Rag2-/-γc-/- mice; experiment: Subcutaneous implant of in vitro pretreated cells, tumor volume; format: in vivo, mouse; set-up: key to Tumor volume: mm^3; V = D×d²/2 (D longest, d shortest diameter); conditions: for Tumor volume: HL-60 cells pretreated in vitro for 96 hours with 270 nM of CM-444 or 300 nM of CM-1758, injected subcutaneously, individual mice
Description: The human AML HL-60 and ML-2 cell lines were first pretreated in vitro daily with 270 and 260 nM of CM-444 or 300 and 210 nM of CM-1758, respectively, for 4 days. Prior to injection in mice, the cell differentiation induction by CM-444 and CM-1758 compounds was verified by measuring CD11b by flow cytometry, as described earlier. Then, 5 × 10^6 cells of cells, pretreated with CM-444, […], or vehicle (80% saline solution, 10% DMSO and 10% Tween 20) and diluted in 100 µL of saline solution, were implanted subcutaneously into the flank of female BALB/cA Rag2^−/−γc^−/− mice between 6 and 8 weeks of age (n = 8). Tumor size was analyzed every 2–3 days using the following method: […], where D and d corresponded to the longest and shortest diameter, respectively. The maximal tumor size/burden permitted by the Animal Care and Ethics Committee of the University of Navarra is 2000 mm^3. In some cases, this limit was reached on the last day of measurement and the mice were immediately euthanized.

[6] = ML-2, replicates 1-3 (Figure 2E)
[7] = ML-2, replicates 1-3 (Figure 2G)
[8] = ML-2 treated daily for 48 h, replicates (Fig 6G)
[9] = MOLM-13, daily treatment for 48 h, replicates 1-3

For COc1cc2nc(-c3cc(C)oc3C)cc(NCC3CCN(c4ncc(C(=O)NO)cn4)CC3)c2cc1OC [CM-1758, 2-[4-[[[2-(2,5-dimethyl-3-furyl)-6,7-dimethoxy-4-quinolyl]amino]methyl] -1-piperidyl]pyrimidine-5-carbohydroxamic acid], the IC50 [1] was 120 nM, the inhibition at 10 µM ([1]; 10 µM) was 89% and the “q-PCR of CDKN1A (p21), log10 (2-ΔΔCt)” value [2, 6] was 1.727 and 1.688 and 1.928. The “q-PCR of CDKN2A (p16), log10 (2-ΔΔCt)” value [2, 6] was 0.7127 and 0.6825 and 0.5556, the “q-PCR of MYC, log10 (2-ΔΔCt)” value [2, 6] was -0.9587 and -1.237 and -1.248 and the “q-PCR of CEBPA, log10 (2-ΔΔCt)” value [2, 7] was 1.926 and 1.786 and 1.671. The “q-PCR of GATA2, log10 (2-ΔΔCt)” value [2, 7] was 2.013 and 1.996 and 2.475, the “q-PCR of SPI1 (PU.1), log10 (2-ΔΔCt)” value [2, 7] was 0.4833 and 0.5215 and 0.7318 and the “q-PCR of TAL1 (SCL), log10 (2-ΔΔCt)” value [2, 7] was 1.453 and 1.626 and 1.68. The “q-PCR of CEBPA” value [2, 8] was 1.831 log10 (2-ΔΔCt) and 1.961 log10 (2-ΔΔCt) and 2.004 log10 (2-ΔΔCt), the “q-PCR of GATA2” value [2, 8] was 1.288 log10 (2-ΔΔCt) and 1.216 log10 (2-ΔΔCt) and 1.319 log10 (2-ΔΔCt) and the “q-PCR of MYC” value [2, 8] was -0.6622 log10 (2-ΔΔCt) and -0.5247 log10 (2-ΔΔCt) and -0.8222 log10 (2-ΔΔCt). The “q-PCR of SPI1” value [2, 8] was 0.8685 log10 (2-ΔΔCt) and 0.5818 log10 (2-ΔΔCt) and 0.6427 log10 (2-ΔΔCt), the “q-PCR of TAL1” value [2, 8] was 1.398 log10 (2-ΔΔCt) and 0.9599 log10 (2-ΔΔCt) and 0.8228 log10 (2-ΔΔCt) and the “q-PCR of CEBPA, log10 (2-ΔΔCt)” value [3, 9] was 2.72 and 2.6188 and 2.826. The “q-PCR of GATA2, log10 (2-ΔΔCt)” value [3, 9] was 1.088 and 1.1424 and 1.015, the “q-PCR of MYC, log10 (2-ΔΔCt)” value [3, 9] was -0.6216 and -0.5326 and -0.5822 and the “q-PCR of SPI1, log10 (2-ΔΔCt)” value [3, 9] was 0.02692 and 0.258 and 0.1525. For the same compound, the “q-PCR of TAL1, log10 (2-ΔΔCt)” value [3, 9] was 1.716 and 1.83 and 1.719, the “CDKN1A log10 (2-ΔΔCt)” value ([3]; MOLM-13, q-PCR) was 0.1026 and 0.1237 and 0.1127 and the “CDKN2A log10 (2-ΔΔCt)” value ([3]; MOLM-13, q-PCR) was 1.026 and 0.9216 and 0.9282. For the same compound, the “GATA2 log10 (2-ΔΔCt)” value ([3]; MOLM-13, q-PCR) was 0.5214 and 0.4825 and 0.3541, the “MYC log10 (2-ΔΔCt)” value ([3]; MOLM-13, q-PCR) was -0.9936 and -0.8825 and -0.8494 and the “SPI1 log10 (2-ΔΔCt)” value ([3]; MOLM-13, q-PCR) was 0.02258 and 0.0358 and 0.04789. The “TAL1 log10 (2-ΔΔCt)” value ([3]; MOLM-13, q-PCR) was 1.37 and 1.426 and 1.336, the efflux ratio at 120 min, 2 µM ([4]; Caco-2, pH 7.4) was > 1050 and the Papp A→B at 120 min, 2 µM ([4]; Caco-2, pH 7.4, A to B) was < 0.01 ×10⁻⁶ cm/s. The tumor growth ([5]; HL-60 cells pretreated in vitro 4 days, s.c.) was “tumor growth was significantly slower”, the Tumor volume ([5]; day 0, in mm³) was 0 and the Tumor volume ([5]; day 6) was 14.6888 and 24.2273 and 0 (4×) and 45.3546. For the same compound, the Tumor volume ([5]; day 8) was 103.082 and 62.3824 and 0 (2×) and 92.0448 and 53.4746 and 85.0123, the Tumor volume ([5]; day 10, in mm³) was 433.416 and 271.101 and 281.205 and 32.0688 and 347.688 and 41.4834 and 382.357 and the Tumor volume ([5]; day 13, in mm³) was 1283.62 and 996.2 and 1210.81 and 1389.27 and 1272.73 and 1452.46 and 1063.15.
